Reference: patent publication US20210353639A1, “MAST1 AND USES FOR DIAGNOSING AND TREATING CANCER” (EMORY UNIVERSITY, priority 2018, published 2021)
Entries after “also recorded” stand apart in the source; their conditions may differ.

Experiments:
MEK1-cRaf complex = target: T1, MEK1-cRaf complex (Homo sapiens, UniProt P04049+Q02750); test: In vitro MEK1-cRaf dissociation, purified complex from KB-3-1 cells; format: biochemical
T1 construct: endogenous in cells; host or cells: KB-3-1
Description: Samples were collected at different time points and subjected to immunoblotting. Density analysis of relative amount of cRaf bound to MEK1 from three biological replicates are shown.

cRaf-MEK1 = target: T2, cRaf-MEK1 (Homo sapiens, UniProt P04049+Q02750); test: cRaf-MEK1 dissociation in cancer cells (MEK1 immunoprecipitation); format: cell-based
T2 construct: endogenous in cells; host or cells: KB-3-1 and other cancer cell lines
Experimental: KB-3-1 cells were treated with different compounds as indicated, followed by MEK1 immunoprecipitation and immunoblotting.

MAST1 = target: T3, MAST1 (Homo sapiens, UniProt Q9Y2H9); test: MAST1 in vitro kinase assay (purified GST-MAST1, ADP-Glo); format: biochemical; conditions: 10 μM drugs incubated with purified GST-MAST1
T3 construct: GST; made in house; host or cells: 293T
Experimental: GST-MAST1 variants were enriched from 293T and kinase activity was assessed by ADP-Glo Kinase assay using myelin basic protein (MBP) as a substrate.
10 μM drugs were incubated with purified GST-MAST1 and applied to the in vitro kinase assay.
FIG. 7G show data on the effect of lestaurtinib on MAST1 activity at a range of ATP concentrations.

Lung PDX (Pt-9 tumor) = test: Tumor growth in lung PDX mice (Pt-9 tumor), lestaurtinib or trametinib with cisplatin; format: in vivo; conditions: in combination with cisplatin (5 mg/kg i.p. twice a week); lestaurtinib 20 mg/kg i.p. 5 times a week, trametinib 1 mg/kg oral daily
[1] = Tolerability of lestaurtinib and cisplatin dosage (body weight, histopathology, hematopoietic properties); format: in vivo, mice; conditions: 20 mg/kg lestaurtinib and 5 mg/kg cisplatin
[2] = Cisplatin sensitivity / cell viability with MAST1 inhibitors in KB-3-1 cells; format: cell-based; conditions: human, read-out: attenuation of cell viability when treated alone
TKO-002 = test: Combination cell viability, SCLC patient-derived tumor TKO-002; format: cell-based, human; conditions: combination of lestaurtinib and cisplatin, platinum-refractory SCLC TKO-002
Description: CI value for synergistic effect is shown.

212LN cells = test: Combination cell viability, Combination Index by CompuSyn, 212LN; format: cell-based, human; conditions: lestaurtinib in combination with cisplatin
Description: (§1) Combination Index (CI) value for cell viability was obtained by CompuSyn.

KB-3-1 cells = test: Combination cell viability, Combination Index by CompuSyn, KB-3-1; format: cell-based, human; conditions: lestaurtinib in combination with cisplatin
Description: as §1

T3 sequence (Q9Y2H9 whole entry): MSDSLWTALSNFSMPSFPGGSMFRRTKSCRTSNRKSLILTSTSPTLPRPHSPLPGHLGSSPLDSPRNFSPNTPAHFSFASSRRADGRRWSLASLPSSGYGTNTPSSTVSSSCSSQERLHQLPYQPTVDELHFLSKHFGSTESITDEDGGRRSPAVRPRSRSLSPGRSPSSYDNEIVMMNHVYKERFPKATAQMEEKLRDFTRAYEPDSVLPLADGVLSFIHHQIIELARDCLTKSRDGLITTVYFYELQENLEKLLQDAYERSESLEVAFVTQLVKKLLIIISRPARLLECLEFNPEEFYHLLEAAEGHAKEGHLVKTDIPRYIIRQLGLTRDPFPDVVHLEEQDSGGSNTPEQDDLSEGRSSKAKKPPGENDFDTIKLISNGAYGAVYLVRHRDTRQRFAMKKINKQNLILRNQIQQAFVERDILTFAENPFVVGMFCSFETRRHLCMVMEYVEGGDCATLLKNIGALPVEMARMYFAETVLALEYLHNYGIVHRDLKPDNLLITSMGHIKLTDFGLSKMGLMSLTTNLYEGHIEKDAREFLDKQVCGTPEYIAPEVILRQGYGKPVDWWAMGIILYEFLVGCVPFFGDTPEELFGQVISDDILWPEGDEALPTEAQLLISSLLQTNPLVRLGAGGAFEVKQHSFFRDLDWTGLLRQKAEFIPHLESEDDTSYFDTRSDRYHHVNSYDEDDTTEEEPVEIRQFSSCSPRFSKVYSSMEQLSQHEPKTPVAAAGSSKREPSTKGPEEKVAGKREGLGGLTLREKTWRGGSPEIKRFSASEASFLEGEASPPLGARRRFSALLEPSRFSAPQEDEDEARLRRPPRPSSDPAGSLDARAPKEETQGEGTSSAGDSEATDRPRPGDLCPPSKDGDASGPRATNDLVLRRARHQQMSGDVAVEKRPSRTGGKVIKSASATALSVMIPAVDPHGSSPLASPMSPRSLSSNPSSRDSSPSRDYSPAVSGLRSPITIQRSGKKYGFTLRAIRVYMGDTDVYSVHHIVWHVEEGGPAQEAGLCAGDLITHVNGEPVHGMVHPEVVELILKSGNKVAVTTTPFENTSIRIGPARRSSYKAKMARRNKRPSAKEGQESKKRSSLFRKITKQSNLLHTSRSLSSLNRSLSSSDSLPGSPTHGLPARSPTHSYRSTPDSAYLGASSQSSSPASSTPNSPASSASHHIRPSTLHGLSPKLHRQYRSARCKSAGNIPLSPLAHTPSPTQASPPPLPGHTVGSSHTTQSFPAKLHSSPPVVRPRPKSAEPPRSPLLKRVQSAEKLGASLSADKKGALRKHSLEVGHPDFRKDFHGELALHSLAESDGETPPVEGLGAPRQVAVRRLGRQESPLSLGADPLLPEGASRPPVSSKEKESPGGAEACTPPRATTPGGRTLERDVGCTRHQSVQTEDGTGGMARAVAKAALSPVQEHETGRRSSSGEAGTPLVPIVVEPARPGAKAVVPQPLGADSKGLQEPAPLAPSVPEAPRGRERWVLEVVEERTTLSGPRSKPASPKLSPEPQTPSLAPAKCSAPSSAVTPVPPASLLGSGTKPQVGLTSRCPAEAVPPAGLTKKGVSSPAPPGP
T1 sequence (Q02750 whole entry): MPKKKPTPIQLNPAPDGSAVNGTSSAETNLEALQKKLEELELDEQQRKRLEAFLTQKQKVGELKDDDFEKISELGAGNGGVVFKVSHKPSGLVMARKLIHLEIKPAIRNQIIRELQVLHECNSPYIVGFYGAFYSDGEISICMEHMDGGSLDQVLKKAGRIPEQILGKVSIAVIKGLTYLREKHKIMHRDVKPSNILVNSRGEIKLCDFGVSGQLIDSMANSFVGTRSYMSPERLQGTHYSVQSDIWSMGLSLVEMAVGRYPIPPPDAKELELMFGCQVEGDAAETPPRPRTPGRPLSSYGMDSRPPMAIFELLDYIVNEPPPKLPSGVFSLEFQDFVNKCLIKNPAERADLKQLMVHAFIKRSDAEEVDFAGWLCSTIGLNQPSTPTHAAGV
T1 sequence (P04049 whole entry): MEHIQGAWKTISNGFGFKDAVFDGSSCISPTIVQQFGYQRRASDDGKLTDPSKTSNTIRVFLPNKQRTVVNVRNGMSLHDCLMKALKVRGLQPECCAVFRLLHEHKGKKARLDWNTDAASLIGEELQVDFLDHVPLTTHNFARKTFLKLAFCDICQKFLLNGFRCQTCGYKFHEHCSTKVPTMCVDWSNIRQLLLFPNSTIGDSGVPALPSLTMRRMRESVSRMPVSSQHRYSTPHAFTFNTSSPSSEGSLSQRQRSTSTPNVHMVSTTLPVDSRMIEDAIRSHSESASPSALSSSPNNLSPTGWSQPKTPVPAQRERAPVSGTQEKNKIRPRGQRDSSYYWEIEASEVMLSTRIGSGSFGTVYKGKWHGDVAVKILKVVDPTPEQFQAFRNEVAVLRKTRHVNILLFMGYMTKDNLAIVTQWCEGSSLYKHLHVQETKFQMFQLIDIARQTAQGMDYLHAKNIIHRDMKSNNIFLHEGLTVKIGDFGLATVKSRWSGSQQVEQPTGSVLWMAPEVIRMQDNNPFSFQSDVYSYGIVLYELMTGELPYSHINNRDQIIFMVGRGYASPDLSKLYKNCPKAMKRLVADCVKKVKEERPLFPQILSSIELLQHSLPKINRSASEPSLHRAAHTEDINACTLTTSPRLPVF
T2 sequence (Q02750 whole entry): as the sequence (Q02750 whole entry) above
T2 sequence (P04049 whole entry): as the sequence (P04049 whole entry) above

SMILES: N.N.[Cl][Pt][Cl] [cisplatin]
- time to dissociation of cRaf from MEK1 (MEK1-cRaf complex; 5 μg/ml cisplatin, time course): within one hour
- dissociation of cRaf from MEK1 in vitro (MEK1-cRaf complex; purified MEK1-cRaf complex, cisplatin 0-5 μg/ml for 2 hours): dissociates cRaf from MEK1 in a dose-dependent manner
- dissociation of cRaf from MEK1 in diverse types of cancer cells (cRaf-MEK1; 5 μg/ml cisplatin for 24 hours): dissociates cRaf

SMILES: Cc1[nH]c(C=C2C(=O)Nc3ccc(F)cc32)c(C)c1C(=O)NCC(O)CN1CCOCC1 (stereo not drawn) [SU14813, 5-((5-fluoro-2-oxo-1,2-dihydro-3H-indol-3-ylidene)methyl)-N-(2-hydroxy-3-morpholin-4-ylpropyl)-2,4-dimethyl-1H-pyrrole-3-carboxamide]
- MAST1 activity in in vitro MAST1 kinase assay (MAST1): inhibited MAST1 activity in vitro

SMILES: N#CC(=C(/N)Sc1ccccc1N)/C(C#N)=C(\N)Sc1ccccc1N [U0126]
- sensitization of cancer cells to cisplatin by MEK1 inhibitor (cancer cells): sensitized cancer cells to cisplatin

SMILES: CC(=O)Nc1cccc(-n2c(=O)n(C3CC3)c(=O)c3c(Nc4ccc(I)cc4F)n(C)c(=O)c(C)c32)c1 [trametinib, N-[3-[3-cyclopropyl-5-[(2-fluoro-4-iodophenyl)amino]-3,4,6,7-tetrahydro-6,8-dimethyl-2,4,7-trioxopyrido[4,3-d]pyrimidin-1(2H)-yl]phenyl]acetamide]
- PDX tumor growth and proliferation (Lung PDX (Pt-9 tumor)): attenuated PDX tumor growth and proliferation; also recorded: sensitizes cancer cells to cisplatin

SMILES: CC(=O)O[C@H]1C(=O)[C@@]2(C)[C@H]([C@H](OC(=O)c3ccccc3)[C@]3(O)C[C@H](OC(=O)[C@H](O)[C@@H](NC(=O)c4ccccc4)c4ccccc4)C(C)=C1C3(C)C)[C@]1(OC(C)=O)CO[C@@H]1C[C@@H]2O [paclitaxel]
- dissociation of cRaf-MEK1 induced by DNA damaging agents and cytotoxic drugs (cRaf-MEK1; KB-3-1 cells): not

SMILES: COc1cc(Nc2c(C#N)cnc3cc(OCCCN4CCN(C)CC4)c(OC)cc23)c(Cl)cc1Cl [bosutinib, 4-[(2,4-Dichloro-5-methoxyphenyl)amino]-6-methoxy-7-[3-(4-methyl-1-piperazinyl)propoxy]-3-quinolinecarbonitrile]
- MAST1 activity in in vitro MAST1 kinase assay (MAST1): inhibited MAST1 activity in vitro

SMILES: CN[C@@H]1C[C@H]2O[C@@](C)([C@@H]1OC)n1c3ccccc3c3c4c(c5c6ccccc6n2c5c31)C(=O)NC4 [staurosporine, 6-methoxy-5-methyl-7-methylamino-6,7,8,9,15,16-hexahydro-5H,14H-5,9-epoxy-4b,9a,15-triazadibenzo[b,h]cyclonona[1,2,3,4-jkl]cyclopenta[e]-as-indacen-14-one]
- MAST1 activity in in vitro MAST1 kinase assay (MAST1): inhibited MAST1 activity in vitro

SMILES: CN1CCN(c2ccc3[nH]c(-c4c(N)c5c(F)cccc5[nH]c4=O)nc3c2)CC1 [dovitinib, 4-amino-5-fluoro-3-(5-(4-methylpiperazin-1-yl)-1H-benzimidazol-2-yl)quinolin-2(1H)-one]
- MAST1 activity in in vitro MAST1 kinase assay (MAST1): inhibited MAST1 activity in vitro

SMILES: C[C@]12O[C@H](C[C@]1(O)CO)n1c3ccccc3c3c4c(c5c6ccccc6n2c5c31)CNC4=O [lestaurtinib, 7-hydroxy-7-(hydroxymethyl)-8-methyl-5,6,7,8,13,14-hexahydro-15H-16-oxa-4b,8a,14-triaza-5,8-methanodibenzo[b,h]cycloocta[jkl]cyclopenta[e]-as-indacen-15-one]
- changes in body weight, histopathology, or hematopoietic properties [1]: did not induce significant changes
- cytotoxicity at 48 h, 100 nM [2]: < 20%
- CI value for cell viability (TKO-002): 0.57
- combination index (CI) for cell viability (212LN cells): 0.257
- combination index (CI) for cell viability (KB-3-1 cells): 0.256
